Test results published in PubChem BioAssay AID248 (DTP/NCI, 2004).
“And” between values parts separate entries of the source, which are not always exact repeats. Identical values can stand only once. Toxic doses and inconclusive results are not listed. No stated cut-off is given here; in the data, active means T/C of 150% or more; inactive means T/C below 125%.

Test system: L1210 leukemia ip in BDF1 mice, survival T/C
Assay: NCI In Vivo Anticancer Drug Screen. Data for tumor model L1210 Leukemia (intraperitoneal) in B6D2F1 (BDF1) mice
Conditions: endpoint: mean survival time, higher = longer survival
Procedure, shortened: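 Mice bearing the transplanted tumor received compound or vehicle. Survival of the treated group was divided by that of the vehicle-treated control group to give the ratio.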

[1] = dose: 100.0 mg/kg/injection, schedule: Q01DX009 (ip), vehicle: saline
[2] = dose: 100.0 mg/kg/injection, schedule: Q04DX003 (ip), vehicle: saline
[3] = dose: 200.0 mg/kg/injection, schedule: Q01DX009 (ip), vehicle: saline
[4] = dose: 200.0 mg/kg/injection, schedule: Q04DX003 (ip), vehicle: saline
[5] = dose: 400.0 mg/kg/injection, schedule: Q04DX003 (ip), vehicle: saline
[6] = dose: 75.0 mg/kg/injection, schedule: Q01DX009 (ip), vehicle: Klucel (hydroxypropylcellulose) (HPC)
[7] = dose: 150.0 mg/kg/injection, schedule: Q01DX009 (ip), vehicle: Klucel (hydroxypropylcellulose) (HPC)
[8] = dose: 300.0 mg/kg/injection, schedule: Q01DX009 (ip), vehicle: Klucel (hydroxypropylcellulose) (HPC)
[9] = dose: 100.0 mg/kg/injection, schedule: Q01DX009 (ip), vehicle: saline with Tween-80
[10] = dose: 200.0 mg/kg/injection, schedule: Q01DX009 (ip), vehicle: saline with Tween-80
[11] = dose: 400.0 mg/kg/injection, schedule: Q01DX009 (ip), vehicle: saline with Tween-80
[12] = dose: 50.0 mg/kg/injection, schedule: Q01DX009 (ip), vehicle: Klucel (hydroxypropylcellulose) (HPC)
[13] = dose: 100.0 mg/kg/injection, schedule: Q01DX009 (ip), vehicle: Klucel (hydroxypropylcellulose) (HPC)
[14] = dose: 200.0 mg/kg/injection, schedule: Q01DX009 (ip), vehicle: Klucel (hydroxypropylcellulose) (HPC)
[15] = dose: 25.0 mg/kg/injection, schedule: Q01DX009 (ip), vehicle: saline
[16] = dose: 50.0 mg/kg/injection, schedule: Q01DX009 (ip), vehicle: saline
[17] = dose: 100.0 mg/kg/injection, schedule: Q04DX003 (ip), vehicle: Klucel (hydroxypropylcellulose) (HPC)
[18] = dose: 200.0 mg/kg/injection, schedule: Q04DX003 (ip), vehicle: Klucel (hydroxypropylcellulose) (HPC)
[19] = dose: 400.0 mg/kg/injection, schedule: Q01DX009 (ip), vehicle: Klucel (hydroxypropylcellulose) (HPC)
[20] = dose: 400.0 mg/kg/injection, schedule: Q04DX003 (ip), vehicle: Klucel (hydroxypropylcellulose) (HPC)

Measured: T/C

CCN(CC)C(=O)Cn1cc(F)c(N)nc1=O
inactive: [1] 98 % of control | [2] 92 % of control | [3] 107 % of control | [4] 92 % of control | dose: 400.0 mg/kg/injection, schedule: Q01DX009 (ip), vehicle: saline 94 % of control | [5] 95 % of control

Brc1cc(Br)c2[nH]c(-c3ccccc3)cc2c1
inactive: dose: 100.0 mg/kg/injection, schedule: Q01DX001 (ip), vehicle: carboxymethylcellulose (CMC) 95 % of control | dose: 200.0 mg/kg/injection, schedule: Q01DX001 (ip), vehicle: carboxymethylcellulose (CMC) 90 % of control | dose: 400.0 mg/kg/injection, schedule: Q01DX001 (ip), vehicle: carboxymethylcellulose (CMC) 88 % of control

c1ccc(C2=NOC(c3ccccc3)C2)cc1 (stereo not given)
inactive: [6] 105 % of control | dose: 75.0 mg/kg/injection, schedule: Q04DX003 (ip), vehicle: Klucel (hydroxypropylcellulose) (HPC) 95 % of control | [7] 105 % of control | dose: 150.0 mg/kg/injection, schedule: Q04DX003 (ip), vehicle: Klucel (hydroxypropylcellulose) (HPC) 100 % of control | [8] 100 % of control | dose: 300.0 mg/kg/injection, schedule: Q04DX003 (ip), vehicle: Klucel (hydroxypropylcellulose) (HPC) 95 % of control

CC(=O)Oc1c(Cl)cc(Cl)cc1Cl
inactive: [9] 107 % of control | [10] 100 % of control | [11] 100 % of control

COC1(OC)C2(Cl)CC(=O)C3CC(=O)C3C1(Cl)C(Cl)=C2Cl (stereo not given)
inactive: [12] 92 % of control | dose: 100.0 mg/kg/injection, schedule: Q01DX001 (ip), vehicle: saline 100 % of control | [13] 94 % of control | dose: 200.0 mg/kg/injection, schedule: Q01DX001 (ip), vehicle: saline 94 % of control | [14] 102 % of control | dose: 400.0 mg/kg/injection, schedule: Q01DX001 (ip), vehicle: saline 101 % of control

O=C(Sc1ccccc1)C(Cl)(Cl)Cl
inactive: [15] 103 % of control | [16] 97 % of control | dose: 50.0 mg/kg/injection, schedule: Q04DX003 (ip), vehicle: saline 97 % of control | dose: 100.0 mg/kg/injection, schedule: Q01DX001 (ip), vehicle: acetone 101 % of control | [1] 95 % of control | [2] 94 % of control | dose: 200.0 mg/kg/injection, schedule: Q01DX001 (ip), vehicle: acetone 95 % of control

COc1ccc(/C=C2/CSC/C(=C/c3ccc(OC)c(OC)c3)C2=O)cc1OC
inactive: [2] 103 % of control | [3] 86 % of control | [4] 94 % of control | [5] 94 % of control

CC(=O)Nc1ccc(OC(=O)Nc2ccc(Cl)c([N+](=O)[O-])c2)cc1
inactive: [13] 97 % of control | [17] 112 % of control | [14] 104 % of control | [18] 97 % of control | [19] 93 % of control | [20] 92 % of control

C/C=C/C(=O)OC1CC2OC3C=C(C)C4OC4C3(C)C1(C)C21CO1 (stereo not given)
inactive: [16] 96 % of control | [1] 96 % of control | [2] 90 % of control | [3] 108 % of control | [4] 92 % of control | [5] 88 % of control

COc1cc(C)c2c([N+](=O)[O-])cc([N+](=O)[O-])c(OC)c2n1
inactive: [6] 98 % of control | [17] 106 % of control | [7] 101 % of control | [18] 93 % of control | [8] 95 % of control | [20] 103 % of control

N#Cc1ccc(C#N)cc1
inactive: [9] 97 % of control | dose: 100.0 mg/kg/injection, schedule: Q04DX003 (ip), vehicle: saline with Tween-80 92 % of control and 95 % of control | [10] 104 % of control | dose: 200.0 mg/kg/injection, schedule: Q04DX003 (ip), vehicle: saline with Tween-80 106 % of control and 86 % of control | [11] 115 % of control | dose: 400.0 mg/kg/injection, schedule: Q04DX003 (ip), vehicle: saline with Tween-80 100 % of control and 104 % of control

CC(=O)OC1OC(C[Se][As](C)C)C(OC(C)=O)C(OC(C)=O)C1OC(C)=O (stereo not given)
inactive: [17] 104 % of control | [18] 98 % of control | [20] 95 % of control

CC(C)(C)c1cc(CO)cc(C(C)(C)C)c1O
inactive: [13] 108 % of control | [17] 91 % of control | [14] 100 % of control | [18] 92 % of control | [19] 96 % of control | [20] 105 % of control

COC1OC2COC(c3ccccc3)OC2C(OC(=S)SCc2ccccc2)C1OC(=O)c1ccccc1 (stereo not given)
inactive: dose: 25.0 mg/kg/injection, schedule: Q04DX002 (ip), vehicle: saline 100 % of control | dose: 50.0 mg/kg/injection, schedule: Q04DX002 (ip), vehicle: saline 88 % of control | dose: 100.0 mg/kg/injection, schedule: Q04DX002 (ip), vehicle: saline 98 % of control | dose: 200.0 mg/kg/injection, schedule: Q04DX002 (ip), vehicle: Klucel (hydroxypropylcellulose) (HPC) 86 % of control | dose: 400.0 mg/kg/injection, schedule: Q04DX002 (ip), vehicle: Klucel (hydroxypropylcellulose) (HPC) 90 % of control

CCC/C(=N/NC(=O)C1CCCO1)c1ccccc1 (stereo not given)
inactive: dose: 25.0 mg/kg/injection, schedule: Q01DX009 (ip), vehicle: Klucel (hydroxypropylcellulose) (HPC) 104 % of control | [12] 102 % of control | [13] 104 % of control and 88 % of control

CC(C)NC(=O)NS(=O)(=O)c1ccc(N)cc1
inactive: [2] 94 % of control | [4] 103 % of control | [5] 110 % of control

OC(O)(C(F)(F)F)C(F)(F)F
inactive: dose: 12.5 mg/kg/injection, schedule: Q01DX005 (ip), vehicle: saline 108 % of control | dose: 12.5 mg/kg/injection, schedule: Q01DX009 (ip), vehicle: saline 95 % of control | dose: 25.0 mg/kg/injection, schedule: Q01DX005 (ip), vehicle: saline 108 % of control | [15] 104 % of control | dose: 50.0 mg/kg/injection, schedule: Q01DX005 (ip), vehicle: saline 104 % of control | [16] 92 % of control

CC(=O)Nc1cc([N+](=O)[O-])ccc1C
inactive: [13] 100 % of control | [14] 105 % of control

CCS(=O)(=O)CS(=O)(=O)Cc1ccccc1
inactive: dose: 75.0 mg/kg/injection, schedule: Q04DX003 (ip), vehicle: saline 94 % of control | dose: 150.0 mg/kg/injection, schedule: Q04DX003 (ip), vehicle: saline 95 % of control | dose: 300.0 mg/kg/injection, schedule: Q04DX003 (ip), vehicle: saline 95 % of control
